Source: paper PMC7232442, “Biofilm Eradication by Symmetrical Selenoesters for Food-Borne Pathogens” (Microorganisms, 2020)
In brackets after ≈: the same amount, converted by molar mass. Entries after “also recorded” stand apart in the source; their conditions may differ. Where a name gives a salt, the structure may show the parent alone.

Tests used:
[1] = tested on: C. violaceum 026 sensor strain with AHL producer E. cloacae 31298 (violacein production); experiment: Quorum sensing (QS) inhibition, parallel inoculation disk diffusion; assay type: cell-based, Chromobacterium violaceum; conditions: disc with 10 μL compound, starting concentration ½ MIC; 24–48 h
Method: The QS inhibitory effect of selenocompounds was examined on the AHL producer E. cloacae strain and C. violaceum sensor bacterial strain. These strains were inoculated in parallel. The QS inhibition was monitored by agar diffusion method on LB* agar plate as described previously. Filter paper discs (7.0 mm in diameter) were placed between the parallel inoculated strains and impregnated with 10 μL compounds. Starting concentration of the compounds was ½ MIC. The agar plates were incubated at room temperature (20 °C) for 24–48 h and the inhibition of violacein production was measured.

[2] = tested on: S. Typhimurium SE02 ΔacrB; experiment: MIC determination by microdilution method; assay type: cell-based, Salmonella enterica serovar Typhimurium; conditions: Salmonella enterica
Method: (§1) The minimum inhibitory concentrations (MICs) of compounds were determined according to the Clinical and Laboratory Standard Institute guidelines (CLSI). MIC values of the compounds were determined by visual inspection. The solvent was also assayed to ensure there was no antibacterial effect and the concentration (1 v/v%) applied in the assays had no antibacterial activity. DMSO was used at subinhibitory concentration (1 v/v%) in the assays.

[3] = tested on: S. Typhimurium SE39 ΔtolC; experiment: MIC determination by microdilution method; assay type: cell-based, Salmonella enterica serovar Typhimurium; conditions: Salmonella enterica
Method: as §1

[4] = tested on: S. Typhimurium SE03 ΔacrA; experiment: MIC determination by microdilution method; assay type: cell-based, Salmonella enterica serovar Typhimurium; conditions: Salmonella enterica
Method: as §1

[5] = tested on: S. Typhimurium SE01 Wild-Type; experiment: MIC determination by microdilution method; assay type: cell-based, Salmonella enterica serovar Typhimurium; conditions: Salmonella enterica; S. Typhimurium SE01 wild-type; read-out: MIC
Method: as §1

S. aureus ATCC 25923 [6] = experiment: Real-time ethidium bromide accumulation assay; assay type: cell-based, Staphylococcus aureus; set-up: key to Relative Fluorescence Index (RFI): RFI = (RFtreated − RFuntreated)/RFuntreated at minute 60; conditions: for Relative Fluorescence Index (RFI): S. aureus ATCC 25923, ½ MIC, minute 60; for EPI activity (in words): reference (sensitive) S. aureus, 60 min
Method: (§2) The impact of compounds on EB accumulation was determined by the automated EB method using a CLARIOstar Plus plate reader (BMG Labtech, UK). Firstly, the bacterial strain was incubated until it reached an optical density (OD) of 0.6 at 600 nm. The culture was washed with phosphate buffered saline (PBS; pH 7.4) and centrifuged at 13,000× g for 3 min, the cell pellet was re-suspended in PBS. The compounds were added at ½ MIC concentration to PBS containing a non-toxic concentration of EB (1 µg/mL). Then, 50 μL of the EB solution containing the compound were transferred into 96-well black microtiter plate (Greiner Bio-One Hungary Kft, Hungary), and 50 μL of bacterial suspension (OD600 0.6) were added to the each well. Then, the plates were placed into the CLARIOstar plate reader, and the fluorescence was monitored at excitation and emission wavelengths of 530 nm and 600 nm every minute for one hour on a real-time basis. From the real-time data, the activity of the compounds, namely the relative fluorescence index (RFI) of the last time point (minute 60) of the EB accumulation assay, was calculated according to the following formula:RFI = (RFtreated − RFuntreated)/RFuntreated(2) where RFtreated is the relative fluorescence (RF) at the last time point of EB retention curve in the presence of an inhibitor, and RFuntreated is the RF at the last time point of the EB retention curve of the untreated control having the solvent control (DMSO).

[7] = tested on: Staphylococcus aureus ATCC 25923; experiment: MIC determination by microdilution method; assay type: cell-based; conditions: S. aureus ATCC 25923
Method: as §1

S. aureus MRSA 272123 [8] = experiment: MIC determination by microdilution method; assay type: cell-based; conditions: Staphylococcus aureus; S. aureus MRSA 272123; read-out: MIC
Method: as §1

[9] = tested on: MRC-5 human embryonal lung fibroblast cells; experiment: Cytotoxicity assay (MTT); assay type: cell-based; conditions: MRC-5 cells
Method: The adherent MRC-5 human embryonal lung fibroblast cells were cultured in 96-well flat-bottomed microtiter plates, using EMEM supplemented with 10% heat-inactivated fetal bovine serum. The density of the cells was adjusted to 1 × 10^4 cells in 100 μL per well, the cells were seeded overnight at 37 °C, 5% CO2, then the medium was removed from the plates containing the cells, and the dilutions of selenocompounds previously made in a separate plate were added to the cells in 200 μL.
The culture plates were incubated at 37 °C for 24 h; at the end of the incubation period, 20 μL of MTT (thiazolyl blue tetrazolium bromide, Sigma) solution (from a stock solution of 5 mg/mL) was added to each well. After incubation at 37 °C for 4 h, 100 μL of sodium dodecyl sulfate (SDS; Sigma) solution (10% in 0.01 M HCI) was added to each well and the plates were further incubated at 37 °C overnight. Cell growth was determined by measuring the optical density (OD) at 540/630 nm with Multiscan EX ELISA reader (Thermo Labsystems, Cheshire, WA, USA). Inhibition of the cell growth was determined according to the formula below:IC50 = 100 − [(ODsample − ODmedium control)/(ODcell control − ODmedium control)] × 100(1)
Results are expressed in terms of IC50, defined as the inhibitory dose that reduces the growth of the cells exposed to the tested compounds by 50%.

S. aureus MRSA 272123 [10] = experiment: Real-time ethidium bromide accumulation assay; assay type: cell-based, Staphylococcus aureus; conditions: for Relative Fluorescence Index (RFI): S. aureus MRSA 272123, ½ MIC, minute 60; for EPI activity (in words): resistant S. aureus MRSA, 60 min
Method: as §2

[11] = tested on: S. Typhimurium SE39 ΔtolC; experiment: Real-time ethidium bromide accumulation assay; assay type: cell-based, Salmonella enterica serovar Typhimurium; conditions: S. Typhimurium SE39 ΔtolC; ½ MIC; minute 60
Method: as §2

[12] = tested on: S. Typhimurium SE03 ΔacrA; experiment: Real-time ethidium bromide accumulation assay; assay type: cell-based, Salmonella enterica serovar Typhimurium; conditions: S. Typhimurium SE03 ΔacrA; ½ MIC; minute 60
Method: as §2

[13] = tested on: S. Typhimurium SE02 ΔacrB; experiment: Real-time ethidium bromide accumulation assay; assay type: cell-based, Salmonella enterica serovar Typhimurium; conditions: S. Typhimurium SE02 ΔacrB; ½ MIC; minute 60
Method: as §2

[14] = tested on: S. Typhimurium SE01 Wild-Type; experiment: Real-time ethidium bromide accumulation assay; assay type: cell-based, Salmonella enterica serovar Typhimurium; conditions: ½ MIC, minute 60
Method: as §2

S. aureus ATCC 25923 [15] = experiment: Resistance modulation assay (checkerboard) with TET or CIP; assay type: cell-based, Staphylococcus aureus
Method: (§3) The resistance modulation effect of compounds with ciprofloxacin (CIP) and tetracycline (TET) antibiotics were evaluated by the checkerboard method on S. aureus strains. Briefly, CIP or TET was diluted in a 96-well microtiter plate by two-fold serial dilution in MH broth and then the compounds were added at subinhibitory concentrations (½ MIC). In this assay, only the tested compounds with well-defined MIC values were tested. Finally, 10^−4 dilution of the overnight bacterial culture in MH was added to each well. The final volume was 200 µL in each well. The microtiter plates were incubated at 37 °C for 18 h. MIC values in the presence of the antibiotics alone and in combination with Se-compounds were determined by visual inspection.

S. aureus MRSA 272123 [16] = experiment: as above; assay type: cell-based, Staphylococcus aureus; conditions: for Interaction with CIP: MRSA strain; for X-fold reduction of MIC of CIP: compound at ½ MIC, with CIP
Method: as §3

S. aureus MRSA = experiment: Biofilm formation using crystal violet; assay type: cell-based, Staphylococcus aureus
Method: (§4) The anti-biofilm effect of the tested compounds against S. aureus strains and wild-type S. Typhimurium SE01 was measured using crystal violet (CV; 0.1% (v/v)). This dye is used to detect the total biofilm biomass formed. Overnight cultures were diluted to OD of 0.1 at 600 nm in TSB medium. Then, the bacterial cultures were added to 96-well microtiter plates and the compounds were added at ½ MIC concentration. The final volume was 200 μL in each well. The microtiter plates were incubated at 30 °C for 48 h with gentle agitation (100 rpm). After the incubation period, TSB medium was discarded, and the plates were washed with tap water to remove unattached cells. Then 200 μL crystal violet was added to the wells and incubated for 15 min at room temperature. Then, CV was removed from the wells and the plates were washed again with tap water, and 200 μL of 70% ethanol was added to the wells. Finally, the biofilm formation was determined by measuring the OD at 600 nm using Multiscan EX ELISA plate reader (Thermo Labsystems, Cheshire, WA, USA). The anti-biofilm effect of compounds was expressed in the percentage (%) of decrease in biofilm formation.

[17] = tested on: reference S. aureus strain (ATCC 25923); experiment: Biofilm formation using crystal violet; assay type: cell-based, Staphylococcus aureus; conditions: sensitive (reference) S. aureus
Method: as §4

[18] = Staphylococcus aureus, ATCC25923

Row | Compound | QS zone of inhibition [1] | MIC [2] | MIC [3] | MIC [4] | MIC [5] | Relative Fluorescence Index (RFI) (S. aureus ATCC 25923 [6]) | EPI activity (in words) (S. aureus ATCC 25923 [6]) | MIC [7] | MIC [7, 18] | MIC (S. aureus MRSA 272123 [8]) | IC50 ([9]; Homo sapiens, MRC5, 24 h) | IC50 ([9]; 24 h) | Relative Fluorescence Index (RFI) (S. aureus MRSA 272123 [10]) | EPI activity (in words) (S. aureus MRSA 272123 [10]) | Relative Fluorescence Index (RFI) [11] | Relative Fluorescence Index (RFI) [12] | Relative Fluorescence Index (RFI) [13] | Relative Fluorescence Index (RFI) [14] | Interaction with CIP (S. aureus MRSA 272123 [16]) | X-fold reduction of MIC of CIP (S. aureus MRSA 272123 [16]; S. aureus MRSA 272123) | further results
1 | CC(CN1c2ccccc2Sc2ccccc21)N(C)C (stereo not shown) [Promethazine, promethazine, reference compound] | 46 mm |  |  |  |  |  |  |  |  |  |  |  |  |  |  |  |  |  |  |  | 
2 | COC(=O)C[Se]C(=O)c1ccc(C(=O)[Se]CC(=O)OC)cc1 [Se-E1] | 41 mm | > 100 µM | > 100 µM | > 100 µM | > 100 µM | 0.98 | effective | 12.5 µM (≈ 5.45 µg/mL) | 12.5 µM (≈ 5.45 µg/mL) | 100 µM (≈ 43.6 µg/mL) | > 75 µM | 77.9 µM | 0.19 | effective | 0.15 | 0.03 | −0.03 | −0.10 |  |  | 
3 | COC(=O)C[Se]C(=O)c1cc(C(=O)[Se]CC(=O)OC)cc(C(=O)[Se]CC(=O)OC)c1 [Se-E3] |  | > 100 µM | > 100 µM | > 100 µM | > 100 µM | 4.15 | most prominent EPI activity; also recorded: significantly effective pump inhibition | 12.5 µM (≈ 7.69 µg/mL) | 12.5 µM (≈ 7.69 µg/mL) | 100 µM (≈ 61.5 µg/mL) | > 75 µM | 76.6 µM | 0.47 | most prominent EPI activity; also recorded: significantly effective pump inhibition | 0.25 | 0.27 | 0.08 | 0.26 | synergism | 2 fold | X-fold reduction of MIC of TET (S. aureus ATCC 25923 [15]; S. aureus ATCC 25923, compound at ½ MIC, with TET): 2 fold; Interaction with TET (S. aureus ATCC 25923 [15]; methicillin-susceptible S. aureus ATCC 25923): synergism; Anti-biofilm effect (in words) (S. aureus MRSA): significant biofilm inhibition; Anti-biofilm effect (in words) [17]: significant biofilm inhibition
4 | CC(=O)C[Se]C(=O)c1ccc(C(=O)[Se]CC(C)=O)cc1 [Se-K1] | 37 mm |  |  |  | 50 µM (≈ 20.2 µg/mL) | 0.1 |  | 0.39 µM (≈ 0.158 µg/mL) | 0.39 µM (≈ 0.158 µg/mL) | 1.56 µM (≈ 0.631 µg/mL) | 0.54 µM |  | −0.15 |  | 0.27 | 0.17 | 0.10 | −0.16 | synergism | 2 fold | 
5 | CN(C)[C@@H]1C(O)=C(C(N)=O)C(=O)[C@@]2(O)C(O)=C3C(=O)c4c(O)cccc4[C@@](C)(O)[C@H]3C[C@@H]12 [TET, tetracycline-hydrochloride, reference compound] |  |  |  |  |  |  |  |  |  |  |  |  |  |  |  |  |  |  |  |  | MIC of the antibiotic alone (S. aureus ATCC 25923 [15]; S. aureus ATCC 25923, no selenocompound): 0.88 µM; MIC of the antibiotic alone (S. aureus MRSA 272123 [16]; S. aureus MRSA 272123, no selenocompound): 14.06 µM
